How the values were obtained:
A549 cells = experiment: CCK-8 antiproliferation assay, A549; type: cell-based; conditions: Homo sapiens, 48 h
Method: (§1) Human lung carcinoma cell lines A549, human cervical cancer cell lines HeLa, human prostate cancer cell lines PC3, human colorectal carcinoma cell lines HCT116, and human liver cells L02 were purchased from the Chinese Academy of Sciences Shanghai Cell Bank (Shanghai, China). HeLa, A549, PC3, HCT116, and L02 cells were cultured in DMEM Dulbecco’s Modified Eagle Medium (DMEM; Gibco Inc., Gaithersburg, MD, USA). All cultures were provided with 10% fetal bovine serum (FBS; YHSM, Beijing, China), 100 IU/mL penicillin, and 100 μg/mL streptomycin, and cells were incubated at 37 °C in an atmosphere of 5% CO2.
(§2) Cell viability was determined using a CCK-8 kit (Apexbio, Houston, TX, USA). […] Subsequently, absorbance was assessed at 450 nm. Three duplicates were set in each group.
(§3) All synthesized quinoxalines compounds were tested for in vitro cytotoxicity against four cancer cell lines (HeLa, PC3, A549, and HCT116). The inhibitory effects of these compounds were evaluated using the CCK-8 assay after treatment with 20 μM of each compound. […] The species of phenyl substituents have a significant effect on the activity. […] By comparison, hydrophobic substitution at the phenyl ring gave derivatives with relatively low potency (QW7–8). In addition, large substituents on the phenyl ring exerted an unfavorable influence on the potency of the compounds (QW8 and QW16).

HCT116 cells = experiment: CCK-8 antiproliferation assay, HCT116; type: cell-based; conditions: Homo sapiens, HCT-116, 48 h
Method: as §1, §2, §3

L02 cells = experiment: CCK-8 cytotoxicity against normal hepatocytes L02; type: cell-based; conditions: Homo sapiens, 48 h, read-out: IC50 ± SD, L02 (human normal hepatocytes)
Method: as §1, §2
To further evaluate the anticancer effect of QW12, we evaluated its cytotoxicity against four human cancer cell lines: HeLa (Human cervical tumor), PC3 (Human prostate tumor), HCT116 (Human colorectal carcinomas), and A549 (Human lung carcinoma). […] Furthermore, the IC50 values of QW12 against PC3 and HCT116 were similar to those of nifuroxazide.

HeLa cells = experiment: Intracellular ROS, DCFH-DA flow cytometry; type: cell-based, human; conditions: 10 and 40 μM, 6 h
Method: Intracellular reactive oxygen species (ROS) were measured by 2,7-dichlorofluorescein diacetate (DCFH-DA) staining. HeLa cells were treated with QW12 at 10 μM and 40 μM for 6 h. After indicated treatment, cells were harvested and washed with PBS. Cells were incubated with 10 μM DCFH-DA at 37 °C for 30 min. Cells were washed twice, resuspended with PBS, and subjected to flow cytometry.

recombinant STAT3 = recombinant STAT3 (Homo sapiens, UniProt P40763); experiment: Biolayer interferometry (BLI) assay; conditions: His-tagged STAT3 on SSA biosensors, QW12 5.2 to 333 μM, read-out: binding affinity (KD) to STAT3
Method: BLI assays were performed using the BLItz system (Sartorius). Biosensors were first equilibrated 10 min in 1X kinetic buffer (Sartorius) consisting of PBS with 0.02% Tween20 and 0.1% BSA. Subsequently, depending on the assay, STAT3 was loaded onto the corresponding biosensor at a concentration of 1.9 µg/µL, as indicated in the Sartorius biosensor datasheets, for an appropriate time interval. The concentration range for the associating protein was chosen, when possible, based on the KD value available from the literature or experimentally determined for all scenarios wherein KD values were unknown. The data recorded were analyzed by means of the BLItz software and MATLAB to extrapolate the kinetic parameters. All association and dissociation curves were fitted by a single exponential function. Each acquisition was repeated twice to confirm reproducibility.
To confirm whether QW12 is a direct STAT3 inhibitor, a BLI (biolayer interferometry) analysis was performed. Briefly, recombinant STAT3 with a His tag was immobilized on SSA biosensors, and the dissociation constants were determined by measuring the binding to serial dilutions of QW12 at concentrations ranging from 5.2 to 333 μM (Figure 9A).

recombinant STAT3, sequence (P40763 whole entry, species assumed): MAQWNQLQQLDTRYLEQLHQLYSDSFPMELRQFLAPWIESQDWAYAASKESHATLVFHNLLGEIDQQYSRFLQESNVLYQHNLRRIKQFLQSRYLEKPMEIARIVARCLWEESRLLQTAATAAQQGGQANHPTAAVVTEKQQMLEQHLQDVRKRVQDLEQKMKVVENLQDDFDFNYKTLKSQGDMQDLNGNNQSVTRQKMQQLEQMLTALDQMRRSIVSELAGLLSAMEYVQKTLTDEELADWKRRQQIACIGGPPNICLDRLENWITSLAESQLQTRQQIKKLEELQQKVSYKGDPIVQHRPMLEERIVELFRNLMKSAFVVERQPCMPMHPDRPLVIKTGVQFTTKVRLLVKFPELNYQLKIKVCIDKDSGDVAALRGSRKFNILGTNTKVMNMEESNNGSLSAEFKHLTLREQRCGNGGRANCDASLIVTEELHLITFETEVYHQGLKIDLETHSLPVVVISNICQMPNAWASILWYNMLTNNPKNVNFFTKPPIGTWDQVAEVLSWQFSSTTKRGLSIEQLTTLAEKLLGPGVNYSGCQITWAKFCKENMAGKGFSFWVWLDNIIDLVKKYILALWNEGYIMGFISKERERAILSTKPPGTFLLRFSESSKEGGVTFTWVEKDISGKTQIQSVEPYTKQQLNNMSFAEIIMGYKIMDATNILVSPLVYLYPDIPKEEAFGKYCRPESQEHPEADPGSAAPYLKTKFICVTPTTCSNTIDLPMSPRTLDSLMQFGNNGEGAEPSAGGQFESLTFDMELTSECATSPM

SMILES: COc1cc(-c2ccc(/C=N/NC(=O)c3ccc(O)cc3)o2)c(OC)cc1-c1ccc2nccnc2c1 [QW12, (E)-N’-((5-(2,5-dimethoxy-4-(quinoxalin-6-yl)phenyl)furan-2-yl)methylene)-4-hydroxybenzohydrazide]
- inhibition at 20 µM (A549 cells; 20 μM, CCK-8, mean ± SD, read-out: Inhibition Rate (%) at 20 μM, A549): 50.8 ± 0.62%
- IC50 (A549 cells; CCK-8, read-out: IC50 ± SD, A549): 20.6 ± 1.22 µM
- inhibition at 20 µM (HCT116 cells; 20 μM, CCK-8, mean ± SD, read-out: Inhibition Rate (%) at 20 μM, HCT116): 65.43 ± 0.27%
- IC50 (HCT116 cells; CCK-8, read-out: IC50 ± SD, HCT116): 12.2 ± 0.25 µM
- IC50 (L02 cells): > 50 µM
- effect on ROS accumulation (HeLa cells): stimulates ROS accumulation in a dose-dependent manner
- Kd (recombinant STAT3): 67.3 µM
